# Measured values reported in US7101677B1, “Receptor assay” (University Court of the University of Glasgow, priority 1999, dated 2006).
# Where a chain is given by its changes, count along the chain named.
# Key:
# [1] = target: T1, CAM α1b-adrenoceptor/GFP fusion protein (Mesocricetus auratus, UniProt P18841, A293L/K290H/R288K); assay: Plate fluorimetry, CAM α1b-adrenoceptor/GFP in HEK 293 cells; type: cell-based, hamster; conditions: 22 hrs treatment, range in brackets, read-out: EC50 of up-regulation of fluorescence of CAM α1b-adrenoceptor/GFP
# T1 construct: expressed in transfected cells
# T1 sequence (P18841 1-515 R288K/K290H/A293L): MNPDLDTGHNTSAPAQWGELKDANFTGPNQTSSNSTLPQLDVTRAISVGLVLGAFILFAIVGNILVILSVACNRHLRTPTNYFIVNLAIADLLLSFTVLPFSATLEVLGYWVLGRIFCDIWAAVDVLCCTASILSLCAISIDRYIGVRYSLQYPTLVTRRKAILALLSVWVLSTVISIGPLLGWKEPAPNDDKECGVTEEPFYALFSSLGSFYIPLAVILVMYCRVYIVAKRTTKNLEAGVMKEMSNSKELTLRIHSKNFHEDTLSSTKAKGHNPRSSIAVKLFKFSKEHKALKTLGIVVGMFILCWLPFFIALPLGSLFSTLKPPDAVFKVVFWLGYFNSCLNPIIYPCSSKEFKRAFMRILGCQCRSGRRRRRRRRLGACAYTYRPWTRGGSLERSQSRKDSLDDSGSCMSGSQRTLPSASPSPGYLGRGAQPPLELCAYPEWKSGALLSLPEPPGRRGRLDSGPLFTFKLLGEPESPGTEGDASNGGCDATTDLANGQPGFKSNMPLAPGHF
# Experimental: These cell lines were used to investigate ligand up-regulation of the CAM α1b-adrenoceptor/GFP fusion protein. Fusion protein upregulation was measured according to a gain in total cellular fluorescence in a plate based fluorimeter.
# For experiments cells were seeded into black 96 well view plates (Costar) on the day before assay. […] Cells were incubated at 37° C. for 22 hours. After incubation fluorescence was detected using a Tecan Spectrafluor plus fluorimeter. To control for plate and media autofluorescence results were calculated by subtracting a blank plate reading from the fluorescence values obtained in drug treated cells.
# The time course of ligand up-regulation of the CAM α1b-adrenoceptor/GFP fusion protein was also investigated. In this study cells were seeded and treated with drug as previously described but fluorescence in the blank plate and the cell plates were read at various time points between 2–31 hours after drug addition.
# [2] = target: T2, 3CAM hamster α1b-adrenoceptor/GFP fusion construct (Mesocricetus auratus, UniProt P18841, A293L/K290H/R288K); assay: Confocal microscopy, 3CAM α1b-adrenoceptor-GFP; type: cell-based; conditions: 1 μM for 24h
# T2 construct: expressed in transfected cells
# T2 sequence (P18841 1-515 R288K/K290H/A293L): T1 sequence (P18841 1-515 R288K/K290H/A293L)
# Experimental: (§1) Cells expressing either the 3CAM (10A) or wild type (10B) hamster α1b-adrenoceptor grown on glass cover slips were treated with vehicle (a), phentolamine (b), WB4101 (c) or HV723 (d) (all at 1 μM) for 24h. The cells were then visualised on a confocal microscope.
# (§2) The images were manipulated with Zeiss LSM or MetaMorph software. Two different protocols for preparation of cells were used. When examining the time course of internalisation and recycling live cells were used. Cells were grown on glass coverslips and mounted on the imaging chamber. Cells were maintained in KRH buffer (see below) and temperature was maintained at 37° C. In other studies fixed cells were used. Cells on glass coverslips were washed with PBS and fixed for 20 min at room temperature using 4% paraformaldehyde in PBS/5% sucrose pH 7.2. After one wash with PBS coverslips were mounted on microscope slides with 40% glycerol in PBS.
# (§3) In the first step the coding sequence of a modified form of GFP was modified by polymerase chain reaction (PCR) amplification. Using the amino-terminal primer 5′-[…]-3 the initiating Met of GFP was removed and both a Kpn I restriction site (underlined) and a 2-amino acid spacer (Gly-Asn) were introduced. Using the carboxy-terminal primer 5-[…]-3′ an Xba I restriction site (underlined) was introduced downstream of the stop codon of GFP. The amplified fragment of GFP digested with Kpn I and Xba I was subcloned into similarly digested pcDNA3 expression vector (Invitrogen). To obtain the α1B-adrenoceptor-GFP fusion proteins, the coding sequence of each form of the α1B-adrenoceptor was amplified by PCR. Using the amino-terminal primer 5′-[…]-3′, a Kpn I restriction site (underlined) was introduced upstream of the initiator Met. […] Finally, the GFP construct in pcDNA3 was digested with Kpn I and ligated together with the PCR product of the α1B-adrenoceptor amplification also digested with Kpn I. The open reading frames so produced represent the coding sequence of either the wild type or 3CAM α1B-adrenoceptor-GFPs. […]
# [3] = target: T3, wild type hamster α1b-adrenoceptor/GFP fusion construct (Mesocricetus auratus, UniProt P18841); assay: Confocal microscopy, wild type α1b-adrenoceptor-GFP; type: cell-based; conditions: 1 μM for 24h
# T3 construct: expressed in transfected cells
# T3 sequence (P18841 1-515): T1 sequence (P18841 1-515 R288K/K290H/A293L) with K288R, H290K, L293A
# Experimental: as §1, §2, §3
# CAM β2-adrenoceptor-GFP = target: T4, CAM β2-adrenoceptor-GFP (Homo sapiens, UniProt P07550, H269K/K267R/L266S/L272A); assay: Confocal microscopy of CAM β2-adrenoceptor-GFP in HEK293 cells; type: cell-based; conditions: 24h, 10^−5 M
# T4 construct: GFP (modified form, Zernicka-Goetz et al. 1997); expressed in transfected cells
# [4] = target: T5, wild-type α1b-adrenoceptor (Mesocricetus auratus, UniProt P18841); assay: [3H]prazosin specific binding to membranes after ligand treatment, wild type; type: cell-based, hamster; conditions: FIG. 10C; [3H]prazosin 2 nM
# T5 construct: expressed in transfected cells
# T5 sequence (P18841 1-515): T1 sequence (P18841 1-515 R288K/K290H/A293L) with K288R, H290K, L293A
# Experimental: (§4) Equivalent studies were performed on plates of cells which were then washed and harvested. Membranes were prepared and the specific binding capacity of a single concentration (2 nM) of [^3H]prazosin was then assessed (FIG. 10C).
# (§5) HEK293 cells stably expressing each of the α1B-adrenoceptor-GFP fusion proteins were grown to confluence on 6 cm dishes. Prior to harvesting, cells were washed twice with 4 ml of ice-cold TE buffer (10 mM Tris, 0.1 mM EDTA pH 7.5) and then scraped into 1 ml of the same buffer. […] The suspension was centrifuged at 16000×g for 15 min and the resulting pellets resuspended in ice-cold TE buffer to final protein concentrations of 0.035–0.16 mg/ml.
# 3CAM α1b-adrenoceptor = target: T6, 3CAM α1b-adrenoceptor (Mesocricetus auratus, UniProt P18841, A293L/K290H/R288K); assay: [3H]prazosin specific binding to membranes after ligand treatment, 3CAM; type: cell-based, hamster; conditions: FIG. 10C; [3H]prazosin 2 nM
# T6 construct: expressed in transfected cells
# T6 sequence (P18841 1-515 R288K/K290H/A293L): T1 sequence (P18841 1-515 R288K/K290H/A293L)
# Experimental: as §4, §5
# [5] = target: T7, PAR1mut/GFP fusion protein (Homo sapiens, UniProt P25116, A405G/G401A/L403A/M404G/N398G/Q402G/S399A/S400G/S406A/Y397A); assay: Agonist mediated down-regulation of PAR1mut/GFP in plate fluorimeter; type: cell-based; conditions: 4 hours incubation
# T7 construct: expressed in transfected cells
# T7 sequence (P25116 22-425 Y397A/N398G/S399A/S400G/G401A/Q402G/L403A/M404G/A405G/S406A): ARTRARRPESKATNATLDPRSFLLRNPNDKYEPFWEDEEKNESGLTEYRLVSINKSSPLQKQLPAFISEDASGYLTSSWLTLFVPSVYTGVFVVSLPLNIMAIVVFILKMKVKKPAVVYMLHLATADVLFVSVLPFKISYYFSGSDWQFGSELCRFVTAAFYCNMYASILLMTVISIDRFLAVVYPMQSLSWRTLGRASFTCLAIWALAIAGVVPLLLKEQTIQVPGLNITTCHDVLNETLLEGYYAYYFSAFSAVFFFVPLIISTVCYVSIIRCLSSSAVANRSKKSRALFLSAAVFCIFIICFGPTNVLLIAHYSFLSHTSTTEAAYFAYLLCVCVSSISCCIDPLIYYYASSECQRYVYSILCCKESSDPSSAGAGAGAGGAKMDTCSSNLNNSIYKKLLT
# Experimental: PAR1 receptor internalisation occurs through two mechanisms. […] This […] in the wild type receptor with the sequence […] (Shapiro and Coughlin, 1998). […] Cells were seeded into black 96 well view plates (Costar) the day before the experiment. The growth media was replaced with phenol red free DMEM/F12 (1:1) media containing 2 mM L-glutamine and either TRAP (10 μM-1 nM) or thrombin (1-0.0001 units/ml). The media also contained 0.5 mM Brilliant Black dye to absorb any media associated autofluorescence. […] To control for plate and media autofluorescence results were calculated by subtracting a blank plate reading from the fluorescence values obtained in drug treated cells.
Molecule,EC50 [1] [nM],upregulation of fluorescence of 3CAM α1b-adrenoceptor/GFP (confocal) [2],upregulation of wild type α1b-adrenoceptor/GFP (confocal) [3],upregulation of fluorescence of CAM β2-adrenoceptor-GFP (confocal) (CAM β2-adrenoceptor-GFP),further results
CCC(C#N)(CCCNCCOc1ccccc1OC)c1cc(OC)c(OC)c(OC)c1 (stereo not drawn) [HV 723],417,Upregulation of the 3CAM,not wild type,,
COc1cccc(OC)c1OCCNCC1COc2ccccc2O1 (stereo not drawn) [WB 4101],676,Upregulation of the 3CAM,not wild type,,
CCCc1ccccc1OCC(O)CNC(C)C (stereo not drawn) [dihydroalprenolol],,,,Upregulation of fluoresence,
Cc1ccc(N(CC2=NCCN2)c2cccc(O)c2)cc1 [phentolamine],170,Upregulation of the 3CAM,not wild type,,
COc1cc2nc(N3CCN(C(=O)c4ccco4)CC3)nc(N)c2cc1OC [prazosin],,,,not recorded,effect on wild-type α1b-adrenoceptor level ([3H]prazosin specific binding) [4]: no effect; effect on 3CAM α1b-adrenoceptor level ([3H]prazosin specific binding) (3CAM α1b-adrenoceptor): upregulation
COC(=O)[C@@H]1[C@H]2C[C@H]3c4[nH]c5ccccc5c4CCN3C[C@@H]2CC[C@@H]1O [yohimbine],,,,not recorded,
thrombin,,,,,maximum decrease (loss) in fluorescence of PAR1 mut/GFP construct [5]: about 5%
